From patent publication US20090137572A1, “2-substituted-4-heteroaryl-pyrimidines useful for the treatment of proliferative disorders” (priority 2004, published 2009)

Experiments:
CDK1-cyclin B = CDK1-cyclin B (Homo sapiens, UniProt P06493); test: Kinase assay (radioactive phosphate incorporation), CDK1-cyclin B; assay type: biochemical; conditions: read-out: Kinase Inhibition pIC50 CDK1-cyclin B (converted)
Summary of the method: (§1)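 Each recombinant kinase was combined with its polypeptide substrate in pH 7.4 assay buffer. Mg/ATP mix carrying [γ-32P]-ATP (100 μM ATP) was then added and the plate incubated at 30° C. After stopping on ice, the reaction was filtered, washed with 75 mM orthophosphoric acid, dried and counted.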

CDK2-cyclin A = CDK2-cyclin A (Homo sapiens, UniProt P24941); test: Kinase assay (radioactive phosphate incorporation), CDK2-cyclin A; assay type: biochemical; conditions: read-out: Kinase Inhibition pIC50 CDK2-cyclin A (converted)
Procedure: (§2) Kinase assays. The compounds of the invention above were investigated for their ability to inhibit the enzymatic activity of various protein kinases (Table 2). This was achieved by measurement of incorporation of radioactive phosphate from ATP into appropriate polypeptide substrates. Recombinant protein kinases and kinase complexes were produced or obtained commercially. Assays were performed using 96-well plates and appropriate assay buffers (typically 25 mM β-glycerophosphate, 20 mM MOPS, 5 mM EGTA, 1 mM DTT, 1 mM […], pH 7.4), into which were added 2-4 μg of active enzyme with appropriate substrates. The reactions were initiated by addition of Mg/ATP mix (15 mM MgCl2+100 μM ATP with 30-50 kBq per well of [γ-^32P]-ATP) and mixtures incubated as required at 30° C. Reactions were stopped on ice, followed by filtration through p81 filterplates or GF/C filterplates (Whatman Polyfiltronics, Kent, UK). After washing 3 times with 75 mM aq orthophosphoric acid, plates were dried, scintillant added and incorporated radioactivity measured in a scintillation counter (TopCount, Packard Instruments, Pangbourne, Berks, UK). Compounds for kinase assay were made up as 10 mM stocks in DMSO and diluted into 10% DMSO in assay buffer.

CDK2-cycline E = CDK2-cycline E (Homo sapiens, UniProt P24941); test: Kinase assay (radioactive phosphate incorporation), CDK2-cyclin E; assay type: biochemical; conditions: read-out: Kinase Inhibition pIC50 CDK2-cycline E (converted)
Summary of the method: as §1

CDK4-cyclin D1 = CDK4-cyclin D1 (Homo sapiens, UniProt P11802); test: Kinase assay (radioactive phosphate incorporation), CDK4-cyclin D1; assay type: biochemical; conditions: read-out: Kinase Inhibition pIC50 CDK4-cyclin D1 (converted)
Summary of the method: as §1

CDK7/cyclin H = CDK7/cyclin H (Homo sapiens, UniProt P50613); test: CDK 7 assay (CTD peptide substrate); assay type: biochemical; conditions: read-out: Kinase Inhibition pIC50 CDK7-cyclin H (converted)
Summary of the method: (§3)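 Inhibition measured against recombinant human kinase/cyclin complex phosphorylating biotin-(Tyr-Ser-Pro-Thr-Ser-Pro-Ser)4 peptide, 100 μM radiolabelled ATP, 45 min at 30° C. Product quantified by filter capture and scintillation counting.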

CDK9/cyclin T1 = CDK9/cyclin T1 (Homo sapiens, UniProt P50750); test: CDK 9 assay (CTD peptide substrate); assay type: biochemical; conditions: read-out: Kinase Inhibition pIC50 CDK9-cyclin T1 (converted)
Summary of the method: as §3

GSK3b = GSK3b (Homo sapiens, UniProt P49841); test: Kinase assay (radioactive phosphate incorporation), GSK-3b; assay type: biochemical; conditions: read-out: Kinase Inhibition pIC50 GSK-3b (converted)
Procedure: as §2

Aurora A kinase = target: T1, Aurora A kinase (Homo sapiens, UniProt O14965); test: Aurora-A (human) kinase assay (Kemptide substrate); assay type: biochemical; conditions: pIC50 is -log(IC50, M); 15 μM ATP; read-out: Kinase Inhibition pIC50 Aurora A kinase (converted)
T1 construct: purchased
T1 sequence (O14965 1-403): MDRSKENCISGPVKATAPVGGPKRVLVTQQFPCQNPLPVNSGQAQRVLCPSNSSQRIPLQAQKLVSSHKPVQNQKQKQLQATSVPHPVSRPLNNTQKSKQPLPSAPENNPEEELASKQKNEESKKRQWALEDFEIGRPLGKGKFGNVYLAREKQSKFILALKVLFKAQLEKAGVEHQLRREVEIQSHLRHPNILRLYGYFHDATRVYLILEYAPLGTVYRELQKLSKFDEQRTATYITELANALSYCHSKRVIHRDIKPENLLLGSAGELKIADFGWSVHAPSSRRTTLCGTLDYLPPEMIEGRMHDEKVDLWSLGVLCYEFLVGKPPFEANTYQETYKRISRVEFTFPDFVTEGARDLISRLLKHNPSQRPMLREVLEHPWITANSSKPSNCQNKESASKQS
Summary of the method: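 Kemptide (LRRASLG, 200 μM) phosphorylation by 5-10 ng commercial aurora-A measured as [γ-33P] incorporation at 15 μM ATP with 10 mM Mg acetate, pH 7.0 MOPS buffer. Reaction ran 40 min at room temperature; acid-stopped, captured on P81 filters, scintillation read.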

[1] = target: T2, Flt3 (FMS-like tyrosine kinase-3) (Homo sapiens, UniProt P36888); test: Kinase assay (radioactive phosphate incorporation), Flt3; assay type: biochemical; conditions: pIC50 is -log(IC50, M), read-out: Kinase Inhibition pIC50 Flt3 (converted)
T2 sequence (P36888 27-993): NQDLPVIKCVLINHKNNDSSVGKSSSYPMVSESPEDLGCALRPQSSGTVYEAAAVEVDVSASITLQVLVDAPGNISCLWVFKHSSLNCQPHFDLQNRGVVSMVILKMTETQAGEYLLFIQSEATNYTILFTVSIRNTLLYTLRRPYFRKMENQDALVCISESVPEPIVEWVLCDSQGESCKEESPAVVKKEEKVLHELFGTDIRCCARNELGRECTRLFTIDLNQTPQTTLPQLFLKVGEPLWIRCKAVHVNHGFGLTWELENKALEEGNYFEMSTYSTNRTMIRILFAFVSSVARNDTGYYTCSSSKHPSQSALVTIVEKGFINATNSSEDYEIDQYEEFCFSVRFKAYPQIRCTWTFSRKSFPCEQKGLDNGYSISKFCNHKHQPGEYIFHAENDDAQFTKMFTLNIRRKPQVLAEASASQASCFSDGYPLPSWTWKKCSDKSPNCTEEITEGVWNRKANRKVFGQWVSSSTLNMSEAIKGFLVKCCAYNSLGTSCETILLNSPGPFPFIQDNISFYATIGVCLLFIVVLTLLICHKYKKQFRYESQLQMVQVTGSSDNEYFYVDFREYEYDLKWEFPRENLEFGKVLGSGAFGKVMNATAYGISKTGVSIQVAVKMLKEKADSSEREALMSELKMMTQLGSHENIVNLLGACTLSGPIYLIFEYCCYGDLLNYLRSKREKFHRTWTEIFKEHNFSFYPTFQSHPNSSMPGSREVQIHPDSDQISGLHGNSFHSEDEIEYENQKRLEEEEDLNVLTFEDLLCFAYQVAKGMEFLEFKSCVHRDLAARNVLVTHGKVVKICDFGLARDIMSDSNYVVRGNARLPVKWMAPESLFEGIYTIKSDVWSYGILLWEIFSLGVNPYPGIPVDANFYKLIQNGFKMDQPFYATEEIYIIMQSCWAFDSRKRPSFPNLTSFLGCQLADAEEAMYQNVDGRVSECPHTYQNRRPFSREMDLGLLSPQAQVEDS
Summary of the method: as §1

Chain of CDK4-cyclin D1 (P11802 whole entry): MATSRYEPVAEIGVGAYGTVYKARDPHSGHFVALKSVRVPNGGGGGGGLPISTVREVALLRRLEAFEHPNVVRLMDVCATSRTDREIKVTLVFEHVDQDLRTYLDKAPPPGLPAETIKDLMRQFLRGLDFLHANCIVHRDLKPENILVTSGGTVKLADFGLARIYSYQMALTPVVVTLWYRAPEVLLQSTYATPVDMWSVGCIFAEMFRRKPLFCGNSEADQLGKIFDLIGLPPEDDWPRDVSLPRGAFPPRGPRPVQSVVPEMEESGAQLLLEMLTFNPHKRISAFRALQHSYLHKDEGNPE
Chain of CDK4-cyclin D1 (P24385 whole entry partner): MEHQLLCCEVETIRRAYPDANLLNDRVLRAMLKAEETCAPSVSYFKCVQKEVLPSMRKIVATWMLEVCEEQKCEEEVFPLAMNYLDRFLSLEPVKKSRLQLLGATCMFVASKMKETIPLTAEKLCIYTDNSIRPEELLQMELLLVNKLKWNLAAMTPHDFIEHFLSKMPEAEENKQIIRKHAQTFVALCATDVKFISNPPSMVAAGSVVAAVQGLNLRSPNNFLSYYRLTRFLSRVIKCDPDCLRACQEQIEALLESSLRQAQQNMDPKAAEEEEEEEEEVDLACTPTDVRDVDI
Chain of CDK9/cyclin T1 (P50750 whole entry): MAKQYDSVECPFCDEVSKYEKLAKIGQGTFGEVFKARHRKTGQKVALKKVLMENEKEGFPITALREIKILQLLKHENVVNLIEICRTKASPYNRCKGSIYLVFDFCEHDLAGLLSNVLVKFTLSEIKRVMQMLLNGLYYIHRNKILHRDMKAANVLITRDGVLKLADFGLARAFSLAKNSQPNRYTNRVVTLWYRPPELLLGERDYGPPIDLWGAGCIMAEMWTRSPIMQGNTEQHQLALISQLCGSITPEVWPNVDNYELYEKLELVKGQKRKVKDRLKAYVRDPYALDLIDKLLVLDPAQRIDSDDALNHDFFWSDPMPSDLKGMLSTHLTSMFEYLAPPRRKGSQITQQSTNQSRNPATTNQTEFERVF
Chain of CDK9/cyclin T1 (O60563 whole entry partner): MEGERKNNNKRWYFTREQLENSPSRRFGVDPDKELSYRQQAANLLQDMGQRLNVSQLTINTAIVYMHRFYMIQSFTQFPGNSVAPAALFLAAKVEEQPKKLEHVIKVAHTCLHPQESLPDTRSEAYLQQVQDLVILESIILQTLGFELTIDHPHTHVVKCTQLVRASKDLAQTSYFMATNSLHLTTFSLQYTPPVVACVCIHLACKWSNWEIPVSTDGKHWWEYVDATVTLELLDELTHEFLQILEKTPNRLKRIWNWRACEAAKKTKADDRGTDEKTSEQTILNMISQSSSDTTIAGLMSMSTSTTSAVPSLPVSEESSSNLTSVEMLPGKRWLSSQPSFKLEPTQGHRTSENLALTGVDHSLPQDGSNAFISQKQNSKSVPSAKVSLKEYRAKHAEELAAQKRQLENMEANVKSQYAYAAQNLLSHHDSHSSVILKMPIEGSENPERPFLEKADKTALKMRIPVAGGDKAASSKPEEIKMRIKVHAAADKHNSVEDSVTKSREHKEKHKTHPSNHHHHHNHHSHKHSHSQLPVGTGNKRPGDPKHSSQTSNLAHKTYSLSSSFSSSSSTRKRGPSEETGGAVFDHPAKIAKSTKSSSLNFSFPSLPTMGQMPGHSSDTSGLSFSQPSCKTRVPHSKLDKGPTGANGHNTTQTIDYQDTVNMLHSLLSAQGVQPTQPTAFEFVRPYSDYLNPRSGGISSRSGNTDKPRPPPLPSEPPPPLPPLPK
Chain of CDK1-cyclin B (P06493 whole entry): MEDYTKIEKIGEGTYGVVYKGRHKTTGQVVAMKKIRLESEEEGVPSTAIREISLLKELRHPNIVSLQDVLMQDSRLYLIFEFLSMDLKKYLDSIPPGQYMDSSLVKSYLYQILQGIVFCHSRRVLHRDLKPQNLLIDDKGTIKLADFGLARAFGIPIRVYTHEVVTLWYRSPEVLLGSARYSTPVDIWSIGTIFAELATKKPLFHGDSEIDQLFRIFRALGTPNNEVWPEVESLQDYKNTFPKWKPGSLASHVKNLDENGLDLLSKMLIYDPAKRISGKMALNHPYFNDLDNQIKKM
Chain of CDK1-cyclin B (P14635 whole entry partner): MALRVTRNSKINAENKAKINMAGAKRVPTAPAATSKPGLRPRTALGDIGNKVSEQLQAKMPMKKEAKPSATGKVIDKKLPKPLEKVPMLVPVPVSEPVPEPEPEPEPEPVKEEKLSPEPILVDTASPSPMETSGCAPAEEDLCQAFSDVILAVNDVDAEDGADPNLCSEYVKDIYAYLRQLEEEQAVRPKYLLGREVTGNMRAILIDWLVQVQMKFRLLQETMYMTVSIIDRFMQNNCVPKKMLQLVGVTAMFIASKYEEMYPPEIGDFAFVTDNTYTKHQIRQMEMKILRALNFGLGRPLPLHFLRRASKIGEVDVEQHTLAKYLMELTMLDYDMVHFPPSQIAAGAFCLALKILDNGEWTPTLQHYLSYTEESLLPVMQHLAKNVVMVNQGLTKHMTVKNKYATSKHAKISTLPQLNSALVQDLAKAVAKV
Chain of CDK7/cyclin H (P50613 whole entry): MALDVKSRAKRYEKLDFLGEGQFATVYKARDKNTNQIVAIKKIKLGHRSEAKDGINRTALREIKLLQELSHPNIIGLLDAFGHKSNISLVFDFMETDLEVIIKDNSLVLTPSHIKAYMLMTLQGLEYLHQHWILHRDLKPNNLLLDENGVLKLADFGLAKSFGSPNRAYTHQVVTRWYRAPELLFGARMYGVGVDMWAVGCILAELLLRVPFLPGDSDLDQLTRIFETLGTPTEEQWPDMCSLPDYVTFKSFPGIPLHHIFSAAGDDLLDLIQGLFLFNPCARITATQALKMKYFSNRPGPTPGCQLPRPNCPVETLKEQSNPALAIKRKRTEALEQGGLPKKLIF
Chain of CDK7/cyclin H (P51946 whole entry partner): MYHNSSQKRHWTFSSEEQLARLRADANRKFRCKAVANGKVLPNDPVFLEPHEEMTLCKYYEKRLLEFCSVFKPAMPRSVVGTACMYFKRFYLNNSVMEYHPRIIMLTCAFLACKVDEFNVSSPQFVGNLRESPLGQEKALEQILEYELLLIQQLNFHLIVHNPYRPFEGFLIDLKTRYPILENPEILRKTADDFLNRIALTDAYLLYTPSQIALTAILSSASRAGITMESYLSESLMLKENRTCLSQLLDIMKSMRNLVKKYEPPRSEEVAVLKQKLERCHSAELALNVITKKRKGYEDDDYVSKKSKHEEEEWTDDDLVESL
Chain of GSK3b (P49841 whole entry, species assumed): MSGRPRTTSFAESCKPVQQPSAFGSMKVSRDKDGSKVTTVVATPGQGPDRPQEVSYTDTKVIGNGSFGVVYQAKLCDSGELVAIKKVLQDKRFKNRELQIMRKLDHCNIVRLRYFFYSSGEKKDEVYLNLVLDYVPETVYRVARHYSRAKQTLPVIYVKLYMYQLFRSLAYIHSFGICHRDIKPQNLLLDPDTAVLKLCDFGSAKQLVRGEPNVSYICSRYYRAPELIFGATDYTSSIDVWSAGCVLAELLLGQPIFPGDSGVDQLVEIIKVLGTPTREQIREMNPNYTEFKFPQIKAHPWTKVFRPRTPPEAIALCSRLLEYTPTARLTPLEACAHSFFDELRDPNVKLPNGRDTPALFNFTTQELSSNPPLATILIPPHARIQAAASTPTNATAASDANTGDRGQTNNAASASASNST

Row | Structure (SMILES) | IC50 (CDK1-cyclin B) [nM] | IC50 (CDK2-cyclin A) [nM] | IC50 (CDK2-cycline E) [nM] | IC50 (CDK4-cyclin D1) [nM] | IC50 (CDK7/cyclin H) [nM] | IC50 (CDK9/cyclin T1) [nM] | IC50 (GSK3b) [nM] | IC50 (Aurora A kinase) [nM] | IC50 [1] [nM] | melting point [°C]
1 | CNc1nc(C)c(-c2ccnc(Nc3cccc(S(=O)(=O)NC(C)=O)c3)n2)s1 [Compound 63, N-Acetyl-3-[4-(4-methyl-2-methylamino-thiazol-5-yl)-pyrimidin-2-ylamino]-benzenesulfonamide] | 6310 | 3160 | 631 | 501 | 2510 | 398 | 1580 | 1580 |  | 
2 | CNS(=O)(=O)c1cccc(Nc2nccc(-c3sc(C)nc3C)n2)c1 [Compound 33, 3-[4-(2,4-Dimethyl-thiazol-5-yl)-pyrimidin-2-ylamino]-N-methyl-benzenesulfonamide] | 501 | 200 | 50.1 | 200 | 126 | 10 | 200 | 1260 |  | 
3 | CCNc1nc(C)c(-c2ccnc(Nc3cccc(S(C)(=O)=O)c3)n2)s1 [Compound 28, [4-(2-Ethylamino-4-methyl-thiazol-5-yl)-pyrimidin-2-yl]-(3-methanesulfonyl-phenyl)-amine] |  | 794 | 15.8 | 251 | 100 | 3.16 | 631 |  | 79.4 | 
4 | Cc1nc(C)c(-c2ccnc(Nc3cccc(CNS(=O)(=O)C(F)(F)F)c3)n2)s1 [Compound 11, N-{3-[4-(2,4-Dimethyl-thiazol-5-yl)-pyrimidin-2-ylamino]-benzyl}-C,C,C-trifluoro-methanesulfonamide] | 1580 | 1580 | 158 | 1260 | 631 | 1260 | 1580 | 200 |  | 
5 | CCNc1nc(C)c(-c2ccnc(Nc3cccc(CNS(=O)(=O)C(F)(F)F)c3)n2)s1 [Compound 10, N-{3-[4-(2-Ethylamino-4-methyl-thiazol-5-yl)-pyrimidin-2-ylamino]-benzyl}-C,C,C-trifluoro-methanesulfonamide] |  | 6310 | 1580 |  | 6310 | 316 | 6310 | 2000 | 158 | 
6 | COCCNS(=O)(=O)c1cccc(Nc2nccc(-c3sc(C)nc3C)n2)c1 [Compound 56, 3-[4-(2,4-Dimethyl-thiazol-5-yl)-pyrimidin-2-ylamino]-N-(2-methoxy-ethyl)-benzenesulfonamide] |  | 3980 |  |  | 5010 | 501 | 1260 | 126 |  | 197 to 198
7 | CNc1nc(C)c(-c2ccnc(Nc3ccc(S(=O)(=O)NCCOC)cc3)n2)s1 [Compound 40, N-(2-Methoxy-ethyl)-4-[4-(4-methyl-2-methylamino-thiazol-5-yl)-pyrimidin-2-ylamino]-benzenesulfonamide] | 79.4 | 15.8 | 3.16 |  |  | 158 | 501 | 5.01 |  | 
8 | Cc1nc(N)sc1-c1ccnc(Nc2cccc(CNS(C)(=O)=O)c2)n1 [Compound 6, N-{3-[4-(2-Amino-4-methyl-thiazol-5-yl)-pyrimidin-2-ylamino]-benzyl}-methanesulfonamide] | 1000 | 398 | 100 | 200 | 126 | 7.94 |  | 126 | 50.1 | 
9 | COCCNS(=O)(=O)c1ccc(Nc2nccc(-c3sc(N)nc3C)n2)cc1 [Compound 41, 4-[4-(2-Amino-4-methyl-thiazol-5-yl)-pyrimidin-2-ylamino]-N-(2-methoxy-ethyl)-benzenesulfonamide] | 50.1 | 15.8 | 7.94 | 501 | 3160 |  | 794 | 50.1 |  | 
10 | CCNc1nc(C)c(-c2ccnc(Nc3ccc(N4CCN(Cc5ccccc5)CC4)cc3)n2)s1 [Compound 60, [4-(4-Benzyl-piperazin-1-yl)-phenyl]-[4-(2-ethylamino-4-methyl-thiazol-5-yl)-pyrimidin-2-yl]-amine] | 6310 | 3160 | 631 | 158 | 200 | 316 |  | 50.1 | 39.8 | 
11 | CCNc1nc(C)c(-c2ccnc(Nc3cccc(S(=O)(=O)NC)c3)n2)s1 [Compound 22, 3-[4-(2-Ethylamino-4-methyl-thiazol-5-yl)-pyrimidin-2-ylamino]-N-methyl-benzenesulfonamide] | 1000 | 794 | 100 | 200 | 100 | 39.8 |  | 63.1 | 79.4 | 
12 | Cc1nc(N)sc1-c1ccnc(Nc2ccc(N3CCNCC3)cc2)n1 [Compound 61, [4-(2-Amino-4-methyl-thiazol-5-yl)-pyrimidin-2-yl]-(4-piperazin-1-yl-phenyl)-amine] | 6310 | 2000 | 398 | 251 | 398 | 158 |  | 20 | 63.1 | 
